Results reported in ChEMBL document CHEMBL3991601, “The target landscape of clinical kinase drugs” (Science, 2017).
Activity calls are given as the source filed them. Rule as the data show it, for most assays here: actives have a measured Kd and inactives only a lower limit.

Assays:
[1] = target: cAMP-dependent protein kinase catalytic subunit beta (Homo sapiens, UniProt P22694)
[2] = target: T1, Breakpoint cluster region protein (Homo sapiens, UniProt P11274)
T1 sequence (P11274 whole entry): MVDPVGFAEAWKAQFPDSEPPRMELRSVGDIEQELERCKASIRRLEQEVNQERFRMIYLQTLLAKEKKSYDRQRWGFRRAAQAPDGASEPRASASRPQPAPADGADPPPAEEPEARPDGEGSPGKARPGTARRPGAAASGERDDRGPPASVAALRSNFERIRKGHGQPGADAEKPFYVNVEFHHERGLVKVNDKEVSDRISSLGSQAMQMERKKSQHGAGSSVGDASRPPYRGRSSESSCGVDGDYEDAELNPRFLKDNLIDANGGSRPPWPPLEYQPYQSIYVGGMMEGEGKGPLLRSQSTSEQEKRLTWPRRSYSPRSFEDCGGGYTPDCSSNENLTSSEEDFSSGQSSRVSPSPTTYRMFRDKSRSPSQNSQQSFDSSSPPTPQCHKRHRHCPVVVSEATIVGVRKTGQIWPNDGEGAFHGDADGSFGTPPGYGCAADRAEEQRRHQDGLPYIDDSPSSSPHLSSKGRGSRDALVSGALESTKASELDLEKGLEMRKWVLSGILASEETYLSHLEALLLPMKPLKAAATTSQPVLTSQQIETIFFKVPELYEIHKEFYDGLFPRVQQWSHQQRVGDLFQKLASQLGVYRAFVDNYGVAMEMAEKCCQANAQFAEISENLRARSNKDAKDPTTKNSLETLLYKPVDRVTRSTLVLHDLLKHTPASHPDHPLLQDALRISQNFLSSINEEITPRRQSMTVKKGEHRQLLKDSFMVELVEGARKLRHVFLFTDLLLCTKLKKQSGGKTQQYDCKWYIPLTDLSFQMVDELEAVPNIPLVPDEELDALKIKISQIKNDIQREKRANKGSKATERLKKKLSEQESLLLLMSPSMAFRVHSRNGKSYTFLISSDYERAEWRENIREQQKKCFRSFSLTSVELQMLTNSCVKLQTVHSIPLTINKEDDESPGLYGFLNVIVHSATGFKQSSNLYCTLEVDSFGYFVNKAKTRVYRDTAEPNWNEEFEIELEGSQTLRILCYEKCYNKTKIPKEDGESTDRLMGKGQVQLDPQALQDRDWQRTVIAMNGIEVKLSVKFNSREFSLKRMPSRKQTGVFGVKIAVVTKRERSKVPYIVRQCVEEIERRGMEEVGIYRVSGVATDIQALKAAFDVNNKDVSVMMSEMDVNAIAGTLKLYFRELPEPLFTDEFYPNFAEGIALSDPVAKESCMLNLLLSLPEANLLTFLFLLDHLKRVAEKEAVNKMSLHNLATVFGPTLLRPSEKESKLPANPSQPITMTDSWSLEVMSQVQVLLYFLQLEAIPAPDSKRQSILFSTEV

[3] = target: T2, Very long-chain specific acyl-CoA dehydrogenase, mitochondrial (Homo sapiens, UniProt P49748)
T2 sequence (P49748 whole entry): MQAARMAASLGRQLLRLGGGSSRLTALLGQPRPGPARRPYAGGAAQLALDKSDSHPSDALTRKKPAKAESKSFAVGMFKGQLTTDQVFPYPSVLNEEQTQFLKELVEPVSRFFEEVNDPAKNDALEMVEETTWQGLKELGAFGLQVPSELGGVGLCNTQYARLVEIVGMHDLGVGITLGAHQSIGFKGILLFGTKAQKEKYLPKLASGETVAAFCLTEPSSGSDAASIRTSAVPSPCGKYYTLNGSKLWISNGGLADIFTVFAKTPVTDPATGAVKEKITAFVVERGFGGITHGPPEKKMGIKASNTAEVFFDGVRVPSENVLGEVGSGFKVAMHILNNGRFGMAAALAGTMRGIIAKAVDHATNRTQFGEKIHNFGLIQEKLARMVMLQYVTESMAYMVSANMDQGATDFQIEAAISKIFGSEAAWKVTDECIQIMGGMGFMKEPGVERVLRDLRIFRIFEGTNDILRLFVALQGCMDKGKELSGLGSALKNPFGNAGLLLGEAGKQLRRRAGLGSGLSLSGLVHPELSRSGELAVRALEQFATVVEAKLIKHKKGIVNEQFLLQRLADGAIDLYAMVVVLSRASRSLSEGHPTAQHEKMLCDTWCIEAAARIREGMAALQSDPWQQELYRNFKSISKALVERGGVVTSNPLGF

[4] = target: Epithelial discoidin domain-containing receptor 1 (Homo sapiens, UniProt Q08345)
[5] = target: Tyrosine-protein kinase HCK (Homo sapiens, UniProt P08631)
[6] = target: Ribosomal protein S6 kinase alpha-3 (Homo sapiens, UniProt P51812)
[7] = target: TRAF2 and NCK-interacting protein kinase (Homo sapiens, UniProt Q9UKE5)
[8] = target: RAC-gamma serine/threonine-protein kinase (Homo sapiens, UniProt Q9Y243)
[9] = target: Serine/threonine-protein kinase 10 (Homo sapiens, UniProt O94804)
[10] = target: Interleukin-1 receptor-associated kinase 1 (Homo sapiens, UniProt P51617)
Also: in the data inactive means no Kd found up to 30 µM.

Ribosomal protein S6 kinase alpha-3, sequence (P51812 whole entry): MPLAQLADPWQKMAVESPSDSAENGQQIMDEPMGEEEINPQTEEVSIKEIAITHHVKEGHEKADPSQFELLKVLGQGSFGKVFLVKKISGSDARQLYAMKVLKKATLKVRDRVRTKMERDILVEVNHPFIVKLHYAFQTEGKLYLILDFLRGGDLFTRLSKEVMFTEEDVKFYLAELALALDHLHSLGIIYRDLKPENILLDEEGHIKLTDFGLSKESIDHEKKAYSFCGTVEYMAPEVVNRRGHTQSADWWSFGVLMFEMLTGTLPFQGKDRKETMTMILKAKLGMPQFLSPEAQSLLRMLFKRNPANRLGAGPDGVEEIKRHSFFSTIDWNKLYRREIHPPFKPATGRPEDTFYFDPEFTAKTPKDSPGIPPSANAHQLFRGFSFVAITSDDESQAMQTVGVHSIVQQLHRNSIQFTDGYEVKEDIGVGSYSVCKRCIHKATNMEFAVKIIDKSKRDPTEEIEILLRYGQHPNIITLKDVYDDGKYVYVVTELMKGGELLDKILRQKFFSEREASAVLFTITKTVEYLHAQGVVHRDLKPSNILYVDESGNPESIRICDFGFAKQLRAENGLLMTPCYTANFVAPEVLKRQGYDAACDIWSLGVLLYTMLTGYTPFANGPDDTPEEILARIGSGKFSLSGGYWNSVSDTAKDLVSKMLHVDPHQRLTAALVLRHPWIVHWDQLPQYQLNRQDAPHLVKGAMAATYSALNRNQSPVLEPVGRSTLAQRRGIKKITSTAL
TRAF2 and NCK-interacting protein kinase, sequence (Q9UKE5 whole entry): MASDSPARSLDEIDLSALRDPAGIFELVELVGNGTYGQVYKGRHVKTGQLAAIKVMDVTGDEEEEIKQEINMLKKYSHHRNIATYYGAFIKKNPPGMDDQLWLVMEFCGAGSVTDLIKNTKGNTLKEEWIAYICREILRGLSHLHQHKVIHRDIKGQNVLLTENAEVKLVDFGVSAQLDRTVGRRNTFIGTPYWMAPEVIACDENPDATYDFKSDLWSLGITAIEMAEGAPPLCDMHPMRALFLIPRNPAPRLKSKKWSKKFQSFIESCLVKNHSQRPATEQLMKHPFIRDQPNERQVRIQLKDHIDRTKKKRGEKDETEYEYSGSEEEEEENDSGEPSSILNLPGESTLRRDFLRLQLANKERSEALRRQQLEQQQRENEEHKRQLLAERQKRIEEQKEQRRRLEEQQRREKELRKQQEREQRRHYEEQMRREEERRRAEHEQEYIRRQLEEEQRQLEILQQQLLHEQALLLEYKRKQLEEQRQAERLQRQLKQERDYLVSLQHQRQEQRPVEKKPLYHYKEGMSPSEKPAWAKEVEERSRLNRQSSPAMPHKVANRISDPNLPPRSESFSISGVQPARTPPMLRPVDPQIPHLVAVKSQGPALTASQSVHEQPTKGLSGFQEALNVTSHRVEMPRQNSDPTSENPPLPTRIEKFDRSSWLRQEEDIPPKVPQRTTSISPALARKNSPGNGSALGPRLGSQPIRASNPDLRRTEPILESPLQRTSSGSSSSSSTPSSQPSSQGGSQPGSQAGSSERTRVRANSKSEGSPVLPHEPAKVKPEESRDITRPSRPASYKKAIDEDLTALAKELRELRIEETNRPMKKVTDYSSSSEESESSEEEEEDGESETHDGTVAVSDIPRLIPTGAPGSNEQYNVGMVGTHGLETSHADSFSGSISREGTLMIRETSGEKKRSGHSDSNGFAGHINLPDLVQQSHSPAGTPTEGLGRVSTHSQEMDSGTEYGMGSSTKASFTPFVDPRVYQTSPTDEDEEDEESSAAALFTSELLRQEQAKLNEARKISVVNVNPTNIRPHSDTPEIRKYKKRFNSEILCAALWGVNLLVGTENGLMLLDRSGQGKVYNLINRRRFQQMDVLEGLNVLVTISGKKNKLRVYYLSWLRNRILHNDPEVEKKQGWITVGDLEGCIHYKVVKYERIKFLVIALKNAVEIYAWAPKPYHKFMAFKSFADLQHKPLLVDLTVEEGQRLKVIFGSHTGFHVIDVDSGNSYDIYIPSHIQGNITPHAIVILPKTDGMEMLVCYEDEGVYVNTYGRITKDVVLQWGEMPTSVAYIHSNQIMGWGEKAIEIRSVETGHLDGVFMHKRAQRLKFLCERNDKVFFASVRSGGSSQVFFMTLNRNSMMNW
Epithelial discoidin domain-containing receptor 1, sequence (Q08345 whole entry, the tested form may be a part): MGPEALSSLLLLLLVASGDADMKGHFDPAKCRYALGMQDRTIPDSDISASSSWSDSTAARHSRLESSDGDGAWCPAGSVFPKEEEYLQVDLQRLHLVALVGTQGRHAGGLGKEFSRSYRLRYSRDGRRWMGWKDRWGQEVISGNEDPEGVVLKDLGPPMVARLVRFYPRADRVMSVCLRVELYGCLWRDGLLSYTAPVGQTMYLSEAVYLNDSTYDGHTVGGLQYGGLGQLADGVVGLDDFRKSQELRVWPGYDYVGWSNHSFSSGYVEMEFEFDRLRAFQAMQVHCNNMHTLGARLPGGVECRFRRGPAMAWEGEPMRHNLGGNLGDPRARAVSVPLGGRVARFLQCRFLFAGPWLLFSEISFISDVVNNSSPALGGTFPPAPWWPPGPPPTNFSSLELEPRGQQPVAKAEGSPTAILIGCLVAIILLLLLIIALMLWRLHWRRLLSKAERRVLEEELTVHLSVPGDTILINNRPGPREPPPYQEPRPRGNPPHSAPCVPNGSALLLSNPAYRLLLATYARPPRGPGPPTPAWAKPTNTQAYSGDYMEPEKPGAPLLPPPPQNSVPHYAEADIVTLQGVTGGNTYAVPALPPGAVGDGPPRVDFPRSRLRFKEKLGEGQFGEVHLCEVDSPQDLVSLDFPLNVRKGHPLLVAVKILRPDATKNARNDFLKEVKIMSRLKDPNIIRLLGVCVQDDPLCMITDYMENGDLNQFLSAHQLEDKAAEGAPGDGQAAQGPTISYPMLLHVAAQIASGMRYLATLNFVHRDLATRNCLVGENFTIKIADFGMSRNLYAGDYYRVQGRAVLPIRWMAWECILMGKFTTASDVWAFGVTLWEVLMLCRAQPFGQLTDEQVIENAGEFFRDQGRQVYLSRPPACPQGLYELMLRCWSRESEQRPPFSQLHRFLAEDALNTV
Interleukin-1 receptor-associated kinase 1, sequence (P51617 whole entry): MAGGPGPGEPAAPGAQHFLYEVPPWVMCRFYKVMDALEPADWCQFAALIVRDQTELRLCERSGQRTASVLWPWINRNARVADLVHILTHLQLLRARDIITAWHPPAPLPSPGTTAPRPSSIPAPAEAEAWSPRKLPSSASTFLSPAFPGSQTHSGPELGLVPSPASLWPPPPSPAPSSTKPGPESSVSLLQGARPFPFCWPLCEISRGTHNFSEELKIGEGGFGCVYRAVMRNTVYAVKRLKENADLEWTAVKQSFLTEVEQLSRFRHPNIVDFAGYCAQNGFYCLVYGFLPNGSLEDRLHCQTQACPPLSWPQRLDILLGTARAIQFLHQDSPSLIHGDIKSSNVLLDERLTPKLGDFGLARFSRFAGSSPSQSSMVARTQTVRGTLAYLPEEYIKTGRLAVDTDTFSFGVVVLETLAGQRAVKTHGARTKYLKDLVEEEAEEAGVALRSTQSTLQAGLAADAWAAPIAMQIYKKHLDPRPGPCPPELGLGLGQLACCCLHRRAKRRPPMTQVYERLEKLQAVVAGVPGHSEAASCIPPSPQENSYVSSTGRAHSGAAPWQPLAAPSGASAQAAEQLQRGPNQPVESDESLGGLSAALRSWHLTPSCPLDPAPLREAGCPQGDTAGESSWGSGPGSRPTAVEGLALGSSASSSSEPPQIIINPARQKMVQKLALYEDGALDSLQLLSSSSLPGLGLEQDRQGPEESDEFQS
RAC-gamma serine/threonine-protein kinase, sequence (Q9Y243 whole entry): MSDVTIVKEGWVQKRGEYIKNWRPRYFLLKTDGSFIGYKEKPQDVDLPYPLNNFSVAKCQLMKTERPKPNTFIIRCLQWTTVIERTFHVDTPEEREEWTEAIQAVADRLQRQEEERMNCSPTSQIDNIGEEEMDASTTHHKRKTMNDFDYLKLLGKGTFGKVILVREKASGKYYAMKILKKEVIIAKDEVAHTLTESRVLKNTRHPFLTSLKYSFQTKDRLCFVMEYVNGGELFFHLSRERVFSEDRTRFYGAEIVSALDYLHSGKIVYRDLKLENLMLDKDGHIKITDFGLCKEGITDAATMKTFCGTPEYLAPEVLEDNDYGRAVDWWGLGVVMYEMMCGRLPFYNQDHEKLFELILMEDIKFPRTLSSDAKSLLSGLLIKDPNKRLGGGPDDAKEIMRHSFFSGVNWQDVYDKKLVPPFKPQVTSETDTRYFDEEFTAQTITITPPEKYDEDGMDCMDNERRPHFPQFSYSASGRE
Tyrosine-protein kinase HCK, sequence (P08631 whole entry): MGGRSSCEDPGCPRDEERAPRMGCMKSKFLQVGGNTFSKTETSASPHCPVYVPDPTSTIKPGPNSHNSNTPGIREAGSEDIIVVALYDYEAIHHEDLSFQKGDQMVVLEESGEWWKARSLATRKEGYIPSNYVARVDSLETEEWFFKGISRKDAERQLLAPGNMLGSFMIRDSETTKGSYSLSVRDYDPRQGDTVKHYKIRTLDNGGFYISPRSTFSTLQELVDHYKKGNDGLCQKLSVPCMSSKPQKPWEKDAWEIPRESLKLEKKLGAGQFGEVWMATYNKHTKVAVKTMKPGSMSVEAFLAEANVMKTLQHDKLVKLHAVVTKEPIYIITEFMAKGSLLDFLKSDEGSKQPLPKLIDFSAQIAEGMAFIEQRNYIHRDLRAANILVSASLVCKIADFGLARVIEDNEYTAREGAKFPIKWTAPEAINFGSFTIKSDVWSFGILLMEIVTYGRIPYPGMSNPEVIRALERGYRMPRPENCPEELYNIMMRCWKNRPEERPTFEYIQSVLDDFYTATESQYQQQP

| Compound | Kd [1] | Kd [2] | Kd [3] | Kd [4] | Kd [5] | Kd [6] | Kd [7] | Kd [8] | Kd [9] | Kd [10] |
| --- | --- | --- | --- | --- | --- | --- | --- | --- | --- | --- |
| O[C@H]1CC[C@H](Nc2ncc3nc(Nc4c(F)cc(F)cc4F)n([C@H]4CCOC4)c3n2)CC1 [TANZISERTIB] | > 30 µM (inactive) | > 30 µM (inactive) | > 30 µM (inactive) | > 30 µM (inactive) | > 30 µM (inactive) | > 30 µM (inactive) | > 30 µM (inactive) | > 30 µM (inactive) | > 30 µM (inactive) | > 30 µM (inactive) |
| Cc1cc(-c2cc(OC(=O)c3ccccc3)ccc2Cl)cc2nnc(Nc3ccc(OCCN4CCCC4)cc3)nc12 [TG100-801] | > 30 µM (inactive) | 0.065 µM (active) | > 30 µM (inactive) | 1.73 µM | > 30 µM (inactive) | > 30 µM (inactive) | > 30 µM (inactive) | > 30 µM (inactive) | > 30 µM (inactive) | > 30 µM (inactive) |
| C[C@@H]1COC(Nc2ccc3ncnc(Nc4ccc(OCc5nccs5)c(Cl)c4)c3c2)=N1 [VARLITINIB] | > 30 µM (inactive) | > 30 µM (inactive) | > 30 µM (inactive) | > 30 µM (inactive) | > 30 µM (inactive) | > 30 µM (inactive) | > 30 µM (inactive) | > 30 µM (inactive) | > 30 µM (inactive) | > 30 µM (inactive) |
| NC(=O)c1ccc(N(C(N)=O)c2c(F)cccc2F)nc1-c1ccc(F)cc1F [VX-702] | > 30 µM (inactive) | > 30 µM (inactive) | > 30 µM (inactive) | > 30 µM (inactive) | > 30 µM (inactive) | > 30 µM (inactive) | > 30 µM (inactive) | > 30 µM (inactive) | > 30 µM (inactive) | > 30 µM (inactive) |
| COc1cc2ncnc(Nc3ccc(O)cc3)c2cc1OC [WHI-P131] | > 30 µM (inactive) | > 30 µM (inactive) | > 30 µM (inactive) | > 30 µM (inactive) | > 30 µM (inactive) | > 30 µM (inactive) | > 30 µM (inactive) | > 30 µM (inactive) | 2.63 µM (active) | > 30 µM (inactive) |

Now from value to molecule:

| Kd [1] | Kd [2] | Kd [3] | Kd [4] | Kd [5] | Kd [6] | Kd [7] | Kd [8] | Kd [9] | Kd [10] | Compound |
| --- | --- | --- | --- | --- | --- | --- | --- | --- | --- | --- |
| > 30 µM (inactive) | > 30 µM (inactive) | > 30 µM (inactive) | > 30 µM (inactive) | > 30 µM (inactive) | > 30 µM (inactive) | > 30 µM (inactive) | > 30 µM (inactive) | > 30 µM (inactive) | > 30 µM (inactive) | CC(C)(O)CC(=O)NCCn1ccc2ncnc(Nc3ccc(Oc4cccc(C(F)(F)F)c4)c(Cl)c3)c21 [TAK-285] |
| > 30 µM (inactive) | > 30 µM (inactive) | > 30 µM (inactive) | > 30 µM (inactive) | > 30 µM (inactive) | > 30 µM (inactive) | > 30 µM (inactive) | > 30 µM (inactive) | > 30 µM (inactive) | > 30 µM (inactive) | Cn1c(=O)c(F)c(Nc2ccc(I)cc2F)c2c(=O)n(C[C@@H](O)CO)cnc21 [TAK-733] |
